Experimental data published in the NIST ThermoML archive (doi:10.1021/je020131a).
“And” between values parts separate entries of the source, which are not always exact repeats. Equal entries are not always repeated.

Legend:
[1] = Liquid; for viscosity: 101.3 kPa, Falling or rolling sphere viscometry; for mass density: 101.33 kPa, Vibrating tube method
[2] = xn = mol fraction of the nth substance listed; conditions: 101.3 kPa, Liquid, Falling or rolling sphere viscometry

C1CCCCC1 [cyclohexane]
[1]
Conditions	mass density [kg/m3]	viscosity [mPa·s]
293.15 K	–	0.976
298.15 K	773.8	0.894
303.15 K	–	0.813
313.15 K	–	0.697

CCOC(=O)OCC [diethyl carbonate]
[1]
Conditions	mass density [kg/m3]	viscosity [mPa·s]
293.15 K	–	0.795
298.15 K	969.1	0.749
303.15 K	–	0.699
313.15 K	–	0.623

CCCCCC [hexane]
[1]
Conditions	mass density [kg/m3]	viscosity [mPa·s]
293.15 K	–	0.313
298.15 K	654.8	0.301
303.15 K	–	0.282
313.15 K	–	0.258

CCCCCCCC [octane]
[1]
Conditions	mass density [kg/m3]	viscosity [mPa·s]
293.15 K	–	0.545
298.15 K	698.5	0.513
303.15 K	–	0.484
313.15 K	–	0.434

COC(=O)OC [dimethyl carbonate]
[1]
Conditions	mass density [kg/m3]	viscosity [mPa·s]
293.15 K	–	0.626
298.15 K	1063.5	0.585
303.15 K	–	0.536
313.15 K	–	0.494

CCCCCCC [heptane]
[1]
Conditions	mass density [kg/m3]	viscosity
293.15 K	–	0.411 mPa·s
298.15 K	679.4	0.388 mPa·s
303.15 K	–	0.37 mPa·s and 0.375 mPa·s
313.15 K	–	0.334 mPa·s

CCOC(=O)OCC [diethyl carbonate] + CCCCCCC
[2]
Conditions	viscosity [mPa·s]
293.15 K, x1 = 0.049	0.41
293.15 K, x1 = 0.0983	0.413
293.15 K, x1 = 0.1973	0.427
293.15 K, x1 = 0.297	0.449
293.15 K, x1 = 0.3989	0.477
293.15 K, x1 = 0.4952	0.508
293.15 K, x1 = 0.601	0.549
293.15 K, x1 = 0.7014	0.594
293.15 K, x1 = 0.8012	0.647
293.15 K, x1 = 0.8985	0.707
293.15 K, x1 = 0.9482	0.744
293.15 K, x1 = 1	0.795
298.15 K, x1 = 0.0509	0.39
298.15 K, x1 = 0.0977	0.394
298.15 K, x1 = 0.1973	0.41
298.15 K, x1 = 0.3052	0.43
298.15 K, x1 = 0.3949	0.453
298.15 K, x1 = 0.5028	0.486
298.15 K, x1 = 0.5924	0.516
298.15 K, x1 = 0.7096	0.565
298.15 K, x1 = 0.8054	0.612
298.15 K, x1 = 0.9028	0.673
298.15 K, x1 = 0.9495	0.709
298.15 K, x1 = 1	0.749
303.15 K, x1 = 0.0506	0.386
303.15 K, x1 = 0.1001	0.389
303.15 K, x1 = 0.1991	0.399
303.15 K, x1 = 0.301	0.416
303.15 K, x1 = 0.4058	0.438
303.15 K, x1 = 0.5006	0.464
303.15 K, x1 = 0.6133	0.501
303.15 K, x1 = 0.7037	0.539
303.15 K, x1 = 0.8029	0.584
303.15 K, x1 = 0.8988	0.637
303.15 K, x1 = 0.946	0.667
303.15 K, x1 = 1	0.699
313.15 K, x1 = 0.0493	0.337
313.15 K, x1 = 0.0986	0.344
313.15 K, x1 = 0.1975	0.362
313.15 K, x1 = 0.2962	0.381
313.15 K, x1 = 0.3992	0.403
313.15 K, x1 = 0.4943	0.426
313.15 K, x1 = 0.5992	0.456
313.15 K, x1 = 0.699	0.49
313.15 K, x1 = 0.8009	0.528
313.15 K, x1 = 0.8984	0.573
313.15 K, x1 = 0.9508	0.599
313.15 K, x1 = 1	0.623

COC(=O)OC [dimethyl carbonate] + CCCCCCC
[2]
Conditions	viscosity [mPa·s]
293.15 K, x1 = 0.05	0.407
293.15 K, x1 = 0.094	0.405
293.15 K, x1 = 0.2039	0.407
293.15 K, x1 = 0.324	0.413
293.15 K, x1 = 0.4062	0.422
293.15 K, x1 = 0.5059	0.441
293.15 K, x1 = 0.6099	0.462
293.15 K, x1 = 0.6987	0.488
293.15 K, x1 = 0.8086	0.527
293.15 K, x1 = 0.9029	0.567
293.15 K, x1 = 0.9504	0.594
293.15 K, x1 = 1	0.626
298.15 K, x1 = 0.0594	0.383
298.15 K, x1 = 0.1204	0.384
298.15 K, x1 = 0.2132	0.385
298.15 K, x1 = 0.3135	0.388
298.15 K, x1 = 0.4018	0.397
298.15 K, x1 = 0.4716	0.406
298.15 K, x1 = 0.6051	0.43
298.15 K, x1 = 0.6946	0.452
298.15 K, x1 = 0.8031	0.489
298.15 K, x1 = 0.902	0.528
298.15 K, x1 = 0.9477	0.554
298.15 K, x1 = 1	0.585
303.15 K, x1 = 0.0586	0.37
303.15 K, x1 = 0.0873	0.367
303.15 K, x1 = 0.1996	0.368
303.15 K, x1 = 0.299	0.375
303.15 K, x1 = 0.4009	0.388
303.15 K, x1 = 0.5081	0.403
303.15 K, x1 = 0.6069	0.426
303.15 K, x1 = 0.6979	0.454
303.15 K, x1 = 0.8051	0.495
303.15 K, x1 = 0.9069	0.518
303.15 K, x1 = 0.9638	0.518
303.15 K, x1 = 1	0.536
313.15 K, x1 = 0.0649	0.33
313.15 K, x1 = 0.1157	0.328
313.15 K, x1 = 0.3432	0.334
313.15 K, x1 = 0.4378	0.341
313.15 K, x1 = 0.5458	0.355
313.15 K, x1 = 0.6259	0.37
313.15 K, x1 = 0.7191	0.393
313.15 K, x1 = 0.8128	0.416
313.15 K, x1 = 0.8798	0.443
313.15 K, x1 = 0.9536	0.475
313.15 K, x1 = 0.9822	0.485
313.15 K, x1 = 1	0.494
